Assay results as given in patent US4963526A, “Oral insulin and a method of making the same” (priority 1988, dated 1990).

Tested on: white laboratory rats
Experiment: Blood glucose level in rats before and three hours after administration of the oral insulin preparation
Assay type: in vivo
Conditions: white laboratory rat, 5 units of bovine insulin, three hours after administration
Description: Two white laboratory rats, weighing 177 and 197 grams, respectively, were used in this experiment. One rat was administered a preparation of oral insulin according to the present invention containing 5 units of insulin; a formulation of the oral insulin according to the present invention containing 10 units of bovine insulin was administered to the second rat. Blood samples were drawn from each animal before and three hours after administration of the oral insulin preparation. The results given below are expressed as the percentage of the pre-experiment blood glucose level.
One white laboratory rat weighing 181 grams received a non-encapsulated preparation containing 5 units of free bovine insulin. This animal served as the control. After three hours, blood glucose level was 98.7% of the pre-experiment blood glucose level.

free bovine insulin: non-encapsulated preparation containing 5 units of free bovine insulin; served as the control
blood glucose level as percentage of the pre-experiment (initial) blood glucose level: 98.7 % of initial blood glucose lev
